{
  "source": "patent US20250144067A1",
  "about": "“PERSONALIZED STARVATION THERAPY FOR CANCER” (Faeth Therapeutics, Inc., priority 2021, published 2025)",
  "key": {"[1]": {"test_system": "NCI-H292 lung cancer cells", "assay": "FDA drug screening, complete media vs cholesterol-free media with simvastatin (TABLE 2)", "format": "cell-based, human"}, "[2]": {"test_system": "NCI-H292 lung cancer cells", "assay": "FDA drug screening, complete media vs cholesterol-free media without statin (TABLE 1)", "format": "cell-based, human"}, "[3]": {"details": "NCI-H292 cells, FDA library drug in cholesterol-free media with simvastatin 0.04 μM"}, "[4]": {"details": "NCI-H292 cells, FDA library drug in complete media"}, "[5]": {"details": "complete media vs cholesterol-free media + simvastatin (0.04 μM), >0 enhanced anti-cancer activity, about 0 neutral, <0 antagonist"}, "[6]": {"details": "NCI-H292 cells, cholesterol-free media without statin"}, "[7]": {"details": "complete vs cholesterol-free media, greater than 0 enhanced anti-cancer activity, about 0 neutral, below 0 antagonists"}, "[8]": {"details": "Complete minus Cholesterol-free, greater than 0 enhanced anti-cancer activity, about 0 neutral, below 0 antagonist"}, "[9]": {"details": "NCI-H292 cells, FDA drug library screen, cholesterol-free media without statin"}, "[10]": {"details": "NCI-H292 cells, FDA drug library screen, complete media"}, "[11]": {"details": "Complete minus Cholesterol-free, >0 enhanced anti-cancer activity, about 0 neutral, <0 antagonist"}, "[12]": {"details": "Complete minus Cholesterol-free, greater than 0 enhanced anti-cancer activity, about 0 neutral, below 0 antagonists"}, "[13]": {"details": "NCI-H292 cells in cholesterol-free media without statin"}, "[14]": {"details": "NCI-H292 cells in complete media"}, "[15]": {"details": "NCI-H292 cells, FDA drug library screen, cholesterol-free media with simvastatin 0.04 μM"}, "[16]": {"details": "complete media minus cholesterol-free media + simvastatin, >0 enhanced anti-cancer activity, about 0 neutral, <0 antagonist"}},
  "note": "Structures can show the parent of a compound that is named as a salt. Where two headings read alike, the source gives them in different places.",
  "data": [
    {"smiles": "O.O.O.O.O.O.O.O=C1N=C([O-])CN1/N=C/c1ccc(-c2ccc([N+](=O)[O-])cc2)o1.O=C1N=C([O-])CN1/N=C/c1ccc(-c2ccc([N+](=O)[O-])cc2)o1.[Na+].[Na+]", "note": "[Dantrolene (sodium hemiheptahydrate)]", "values": [
      {"measurement": "Cholesterol-free media + simvastatin (0.04 μM)", "setting": "[1]; [3]", "result": 1.565},
      {"measurement": "Complete Media", "setting": "[1]; [4]", "result": 1.218},
      {"measurement": "Difference", "setting": "[1]; [5]", "result": "−0.35"},
      {"measurement": "Cholesterol-free", "setting": "[2]; [6]", "result": 1.274},
      {"measurement": "Complete", "setting": "[2]; NCI-H292 cells, complete media", "result": 0.9468},
      {"measurement": "Difference", "setting": "[2]; [7]", "result": "−0.33"}
    ]},
    {"smiles": "CCOc1ccc(Cc2cc([C@@H]3O[C@H](CO)[C@@H](O)[C@H](O)[C@H]3O)ccc2Cl)cc1", "note": "[Dapagliflozin]", "values": [
      {"measurement": "Cholesterol-free media + simvastatin (0.04 μM)", "setting": "[1]; [3]", "result": 1.024},
      {"measurement": "Complete Media", "setting": "[1]; [4]", "result": 0.6919},
      {"measurement": "Difference", "setting": "[1]; [5]", "result": "−0.33"},
      {"measurement": "Difference", "setting": "[2]; [8]", "result": "−0.18"},
      {"measurement": "Cholesterol-free", "setting": "[2]; [9]", "result": 1.052},
      {"measurement": "Complete", "setting": "[2]; [10]", "result": 0.875}
    ]},
    {"smiles": "O=c1ccc2ccc(O)c(O)c2o1", "note": "[Daphnetin]", "values": [
      {"measurement": "Cholesterol-free media + simvastatin (0.04 μM)", "setting": "[1]; NCI-H292 cells, drug in cholesterol-free media with simvastatin 0.04 μM", "result": 1.124},
      {"measurement": "Complete Media", "setting": "[1]; NCI-H292 cells, drug in complete media", "result": 0.9139},
      {"measurement": "Difference", "setting": "[1]; [5]", "result": "−0.21"},
      {"measurement": "Difference", "setting": "[2]; [11]", "result": "−0.27"},
      {"measurement": "Cholesterol-free", "setting": "[2]; [6]", "result": 1.207},
      {"measurement": "Complete", "setting": "[2]; NCI-H292 cells, complete media", "result": 0.9359}
    ]},
    {"smiles": "Cc1ccccc1N1CCN(CCc2nnc3n2CCCC3)CC1", "note": "[Dapiprazole (hydrochloride)]", "values": [
      {"measurement": "Cholesterol-free media + simvastatin (0.04 μM)", "setting": "[1]; [3]", "result": 1.337},
      {"measurement": "Complete Media", "setting": "[1]; [4]", "result": 1.063},
      {"measurement": "Difference", "setting": "[1]; [5]", "result": "−0.27"},
      {"measurement": "Difference", "setting": "[2]; [12]", "result": "−0.49"},
      {"measurement": "Cholesterol-free", "setting": "[2]; [13]", "result": 1.532},
      {"measurement": "Complete", "setting": "[2]; [14]", "result": 1.043}
    ]},
    {"smiles": "CN(C)[C@@H](CCOc1cccc2ccccc12)c1ccccc1", "note": "[Dapoxetine (hydrochloride)]", "values": [
      {"measurement": "Cholesterol-free media + simvastatin (0.04 μM)", "setting": "[1]; NCI-H292 cells, cholesterol-free media with simvastatin 0.04 μM, FDA drug library screen (TABLE 2)", "result": 1.079},
      {"measurement": "Complete Media", "setting": "[1]; NCI-H292 cells, complete media, FDA drug library screen (TABLE 2)", "result": 1.031},
      {"measurement": "Difference", "setting": "[1]; complete media minus cholesterol-free media + simvastatin (0.04 μM), >0 enhanced anti-cancer activity, about 0 neutral, <0 antagonist", "result": "−0.05"},
      {"measurement": "Cholesterol-free", "setting": "[2]; [6]", "result": 1.092},
      {"measurement": "Complete", "setting": "[2]; NCI-H292 cells, complete media", "result": 0.7794},
      {"measurement": "Difference", "setting": "[2]; [7]", "result": "−0.31"}
    ]},
    {"smiles": "Nc1ccc(S(=O)(=O)c2ccc(N)cc2)cc1", "note": "[Dapsone]", "values": [
      {"measurement": "Cholesterol-free media + simvastatin (0.04 μM)", "setting": "[1]; [15]", "result": 0.9689},
      {"measurement": "Complete Media", "setting": "[1]; [10]", "result": 1.132},
      {"measurement": "Difference", "setting": "[1]; [16]", "result": 0.16},
      {"measurement": "Difference", "setting": "[2]; [12]", "result": "−0.48"},
      {"measurement": "Cholesterol-free", "setting": "[2]; [13]", "result": 1.475},
      {"measurement": "Complete", "setting": "[2]; [14]", "result": 0.9984}
    ]},
    {"smiles": "CCCCCCCCCC(=O)N[C@@H](Cc1c[nH]c2ccccc12)C(=O)N[C@H](CC(N)=O)C(=O)N[C@@H](CC(=O)O)C(=O)N[C@@H]1C(=O)NCC(=O)N[C@@H](CCCN)C(=O)N[C@@H](CC(=O)O)C(=O)N[C@H](C)C(=O)N[C@@H](CC(=O)O)C(=O)NCC(=O)N[C@H](CO)C(=O)N[C@@H]([C@H](C)CC(=O)O)C(=O)N[C@@H](CC(=O)c2ccccc2N)C(=O)O[C@@H]1C", "note": "[Daptomycin]", "values": [
      {"measurement": "Cholesterol-free media + simvastatin (0.04 μM)", "setting": "[1]; [15]", "result": 1.147},
      {"measurement": "Complete Media", "setting": "[1]; [10]", "result": 1.33},
      {"measurement": "Difference", "setting": "[1]; complete media minus cholesterol-free media + simvastatin, […]", "result": 0.18},
      {"measurement": "Cholesterol-free", "setting": "[2]; [6]", "result": 1.025},
      {"measurement": "Complete", "setting": "[2]; NCI-H292 cells, complete media", "result": 0.6476},
      {"measurement": "Difference", "setting": "[2]; complete vs cholesterol-free media, […]", "result": "−0.38"}
    ]},
    {"smiles": "NC(=O)C(c1ccccc1)(c1ccccc1)[C@@H]1CCN(CCc2ccc3c(c2)CCO3)C1", "note": "[Darifenacin (hydrobromide)]", "values": [
      {"measurement": "Cholesterol-free media + simvastatin (0.04 μM)", "setting": "[1]; [15]", "result": 1.197},
      {"measurement": "Complete Media", "setting": "[1]; [10]", "result": 1.073},
      {"measurement": "Difference", "setting": "[1]; [5]", "result": "−0.12"},
      {"measurement": "Difference", "setting": "[2]; [8]", "result": "−0.11"},
      {"measurement": "Cholesterol-free", "setting": "[2]; [9]", "result": 1.186},
      {"measurement": "Complete", "setting": "[2]; [10]", "result": 1.075}
    ]},
    {"smiles": "CC(O)c1cc(C(=O)N[C@@H](C)Cn2ccc(-c3ccc(C#N)c(Cl)c3)n2)[nH]n1", "note": "(some centres unmarked) [Darolutamide]", "values": [
      {"measurement": "Cholesterol-free media + simvastatin (0.04 μM)", "setting": "[1]; NCI-H292 cells, cholesterol-free media with simvastatin 0.04 μM, cell growth value in FDA drug screen", "result": 0.9075},
      {"measurement": "Complete Media", "setting": "[1]; NCI-H292 cells, complete media, cell growth value in FDA drug screen", "result": 0.9966},
      {"measurement": "Difference", "setting": "[1]; [16]", "result": 0.09},
      {"measurement": "Difference", "setting": "[2]; [11]", "result": "−0.20"},
      {"measurement": "Cholesterol-free", "setting": "[2]; [6]", "result": 1.263},
      {"measurement": "Complete", "setting": "[2]; NCI-H292 cells, complete media", "result": 1.061}
    ]},
    {"smiles": "CC(C)CN(C[C@@H](O)[C@H](Cc1ccccc1)NC(=O)O[C@H]1CO[C@H]2OCC[C@H]21)S(=O)(=O)c1ccc(N)cc1", "note": "[Darunavir (Ethanolate)]", "values": [
      {"measurement": "Cholesterol-free media + simvastatin (0.04 μM)", "setting": "[1]", "result": 1.545},
      {"measurement": "Complete Media", "setting": "[1]", "result": 1.286},
      {"measurement": "Difference", "setting": "[1]", "result": "−0.26"},
      {"measurement": "Cholesterol-free", "setting": "[2]", "result": 0.8952},
      {"measurement": "Difference", "setting": "[2]", "result": 0.25}
    ]},
    {"smiles": "CC(C)CN(C[C@@H](O)[C@H](Cc1ccccc1)NC(=O)O[C@H]1CO[C@H]2OCC[C@H]21)S(=O)(=O)c1ccc(N)cc1", "note": "[Darunavir]", "values": [
      {"measurement": "Cholesterol-free media + simvastatin (0.04 μM)", "setting": "[1]", "result": 0.9174},
      {"measurement": "Complete Media", "setting": "[1]", "result": 0.7724},
      {"measurement": "Difference", "setting": "[1]", "result": "−0.14"},
      {"measurement": "Cholesterol-free", "setting": "[2]", "result": 1.103},
      {"measurement": "Complete", "setting": "[2]", "result": 0.8067},
      {"measurement": "Difference", "setting": "[2]", "result": "−0.30"}
    ]}
  ]
}
